Assay results: patent US20120295838A1, “Selective poly-substituted glycine antibiotics and related compositions” (priority 2008, published 2012)
In brackets after ≈: the same amount, converted by molar mass. Several values for one entry are separate records, joined by “and”; a condition that tells them apart may be missing. Identical values can stand only once. Like-named read-outs stand apart in the source and are kept apart here. Numbered stars: 1 amine (or outer) side, 2 acyl side, 3 side chain; on linkers, the order of the positions; unused ones are H or OH. Square brackets hold non-standard residues; d marks the D form. Ends that are not written are not given here. Peptide text beside a SMILES is read from it. Gly(N-CH2CH2-imidazol-4-yl) = O=C(O)CNCCc1c[nH]cn1; X1 = CC(C)[C@H](C)N(CC(=O)[*:2])[*:1]; Nspe = C[C@H](NCC(=O)O)c1ccccc1; Nphe = O=C(O)CNCc1ccccc1; Nlys = NCCCCNCC(=O)O

Assays:
Type in all cases: cell-based
B. subtilis ATCC 6633 = conditions: for Selectivity ratio SR B. subtilis: Table 6, ratio of 10% hemolytic dose to B. subtilis MIC
Procedure, shortened: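 Broth microdilution MICs per CLSI M7-A6 in cation-adjusted Mueller-Hinton broth, using 1×10^6 CFU/mL inoculum added 1:1 to twofold serial peptoid dilutions. Values reproducible across three independent experiments, each with two parallel trials.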

E. coli ATCC 35218 = conditions: for SR: Table 8, calculated as HD10/E. coli MIC; for Selectivity ratio SR E. coli: Table 6, ratio of 10% hemolytic dose to E. coli MIC
[1] = test system: Enterobacter aerogenes ATCC 35029; conditions: for Selectivity ratio (SR): Table 7B, 10% hemolytic dose divided by MIC
Protocol: (§1) Antibacterial assays. MICs were determined according to CLSI M7-A6 protocols in a 96-well microtiter plate. In test wells, 50 uL bacterial inoculum (5×10^5 CFU/ml) in Mueller-Hinton broth (MHB) was added to 50 μL peptoid solution in MHB (prepared by 1:2 serial dilutions). Positive controls contained 50 μL inoculum and 50 μL MHB without peptoid. […] MIC values reported were reproducible between three independent experimental replicates, each consisting of two parallel trials. Broad-spectrum antimicrobial susceptibility testing was performed against BSL2 pathogens by Nova Biologicals, Inc. (Conroe, Tex.).
(§2) Broad-spectrum antibacterial assays. MICs of compounds were determined by microdilution procedure in Mueller-Hinton broth (MHB) in accordance with CLSI M7-A6 protocols in a manner similar to that described for the screen antibacterial assays. Inoculated microtiter plates were incubated at 35° C. for 24 hours prior to the result being recorded. Four ATCC strains that were used as standards are recommended by CLSI: Pseudomonas aeruginosa ATCC 27853, Escherichia coli ATCC 25922, Staphylococcus aureus ATCC 29213 and Enterococcus faecalis ATCC 29212. Other strains from the ATCC collection include Proteus vulgaris ATCC 49132, Proteus mirabilis ATCC 35659, Klebsiella pneumoniae ATCC 33495, Enterobacter aerogenes ATCC 35029 and Serratia marcescens ATCC 13880. S. aureus NRS100 (COL) is a well characterized methicillian-resistant S. aureus (MRSA) strain. The strains S. aureus VAN1 and S. aureus VAN2, vancomycin-resistant MRSA strains that were isolated in Michigan and Pennsylvania, were the first vancomycin-resistant strains clinically isolated. S. aureus NRS 119 and S. aureus NRS 120 are linezolid-resistant isolates from the Network on Antimicrobial Resistance in S. aureus (NARSA) collection. E. faecalis 99 and E. faecium 106 are vancomycin-resistant enterococcal strains.

[2] = test system: Enterococcus faecalis ATCC 29212; conditions: for Selectivity ratio (SR): Table 7B, 10% hemolytic dose divided by MIC
Protocol: as §1, §2

[3] = test system: Klebsiella pneumoniae ATCC 33495; conditions: for Selectivity ratio (SR): Table 7B, 10% hemolytic dose divided by MIC
Protocol: as §1, §2

Question: With `C[C@@H](c1ccccc1)N(CC(=O)N(CCc1cnc[nH]1)CC(=O)N(CCCCN)CC(=O)N(CC(=O)N(CC(=O)N(CCCCN)CC(=O)N(CC(=O)N(CCc1cnc[nH]1)CC(N)=O)[C@@H](C)c1ccccc1)[C@@H](C)c1ccccc1)[C@@H](C)c1ccccc1)C(=O)CN(CCCCN)C(=O)CN(C(=O)CN(C(=O)CNCCCCN)[C@@H](C)c1ccccc1)[C@@H](C)c1ccccc1` [1-Nhis6,12, H-(Nlys-Nspe-Nspe-Nlys-Nspe-Nhis)2-NH2] (H-[Nlys][Nspe][Nspe][Nlys][Nspe][Gly(N-CH2CH2-imidazol-4-yl)][Nlys][Nspe][Nspe][Nlys][Nspe][Gly(N-CH2CH2-imidazol-4-yl)]-NH2) as the molecule, how does the “MIC for B. subtilis ATCC 6633” value (B. subtilis ATCC 6633) read?
Answer: Its value is 0.78 to 1.6 µM.

Question: And the “MIC for E. coli ATCC 35218” value (E. coli ATCC 35218)?
Answer: Its value is 50 µM.

Question: What about the SR (E. coli ATCC 35218) of the same molecule?
Answer: The SR was greater than 4.0.

Question: `CC(C)[C@H](C)N(CC(=O)N(CC(=O)N(CCCCN)CC(=O)N(CC(=O)N(CC(=O)N(CCCCN)CC(=O)N(CC(=O)N(CC(=O)N(CCCCN)CC(=O)N(CC(=O)N(CC(N)=O)[C@@H](C)c1ccccc1)[C@@H](C)C(C)C)[C@@H](C)c1ccccc1)[C@@H](C)C(C)C)[C@@H](C)c1ccccc1)[C@@H](C)C(C)C)[C@@H](C)c1ccccc1)C(=O)CNCCCCN` [1-Nsdp2,5,8,11, H-(Nlys-Nsdp-Nspe)4-NH2] (H-[Nlys][X1][Nspe][Nlys][X1][Nspe][Nlys][X1][Nspe][Nlys][X1][Nspe]-NH2) was tested. Which “Selectivity ratio SR B. subtilis” value (B. subtilis ATCC 6633) did it give?
Answer: Its value is 142.

Question: And the “Selectivity ratio SR E. coli” value (E. coli ATCC 35218)?
Answer: Its value is > 9.7 and 9.7.

Question: What about the “Selectivity ratio SR E. coli” value (E. coli ATCC 35218; listed as 1-Nspd2,5,8,11) of the same molecule?
Answer: Its value is 9.7.

Question: What about the MIC ([1]; ATCC 35029) of the same molecule?
Answer: The MIC was 32 µg/mL (≈ 19 µM).

Question: And the “Selectivity ratio (SR)” value ([1]; E. aerogenes ATCC 35029)?
Answer: Its value is 5.8.

Question: And the MIC ([2]; ATCC 29212)?
Answer: Its MIC is 8 µg/mL (≈ 4.75 µM).

Question: And the “Selectivity ratio (SR)” value ([2]; E. faecalis ATCC 29212)?
Answer: Its value is 23.

Question: And the MIC ([3]; ATCC 33495)?
Answer: The MIC was 8 µg/mL (≈ 4.75 µM).

Question: What about the “Selectivity ratio (SR)” value ([3]; K. pneumoniae ATCC 33495) of the same molecule?
Answer: The value was 23.

Question: “GIGKFLKKAKKFGKAFVKILKK-NH2 [pexiganan, reference compound]” was tested. Which “Selectivity ratio SR B. subtilis” value (B. subtilis ATCC 6633) did it give?
Answer: The value was 44.

Question: What about the “MIC for E. coli ATCC 35218” value (E. coli ATCC 35218) of the same molecule?
Answer: The value was 3.1 to 6.3 µM.

Question: What about the “Selectivity ratio SR E. coli” value (E. coli ATCC 35218) of the same molecule?
Answer: Its value is 11.

Question: What about the SR (E. coli ATCC 35218) of the same molecule?
Answer: The SR was 12.

Question: What about the MIC ([1]; Table 7A, E. aerogenes ATCC 35029) of the same molecule?
Answer: Its MIC is 32 µg/mL.

Question: And the “Selectivity ratio (SR)” value ([1]; E. aerogenes ATCC 35029)?
Answer: The value was 5.7.

Question: What about the MIC ([2]; Table 7A, E. faecalis ATCC 29212) of the same molecule?
Answer: Its MIC is 32 µg/mL.

Question: And the “Selectivity ratio (SR)” value ([2]; E. faecalis ATCC 29212)?
Answer: Its value is 5.7.

Question: What about the MIC ([3]; Table 7A, K. pneumoniae ATCC 33495) of the same molecule?
Answer: Its MIC is 8 µg/mL.

Question: And the “Selectivity ratio (SR)” value ([3]; K. pneumoniae ATCC 33495)?
Answer: Its value is 23.

Question: What does the source list for `NCCCCNCC(=O)N(CC(=O)N(CC(=O)N(CCCCN)CC(=O)N(CC(=O)N(CC(=O)N(CCCCN)CC(=O)N(CC(=O)N(CC(=O)N(CCCCN)CC(=O)N(CC(=O)N(CC(N)=O)Cc1ccccc1)Cc1ccccc1)Cc1ccccc1)Cc1ccccc1)Cc1ccccc1)Cc1ccccc1)Cc1ccccc1)Cc1ccccc1` [1achiral, H-(Nlys-Npm-Npm)4-NH2] (H-[Nlys][Nphe][Nphe][Nlys][Nphe][Nphe][Nlys][Nphe][Nphe][Nlys][Nphe][Nphe]-NH2)?
Answer: MIC for B. subtilis ATCC 6633 (B. subtilis ATCC 6633): 1.6 µM; Selectivity ratio SR B. subtilis (B. subtilis ATCC 6633): 235; MIC for E. coli ATCC 35218 (E. coli ATCC 35218): 12.5 µM; Selectivity ratio SR E. coli (E. coli ATCC 35218): 15; SR (E. coli ATCC 35218): 14; Selectivity ratio (SR) ([1]; E. aerogenes ATCC 35029): 2.4; Selectivity ratio (SR) ([2]; E. faecalis ATCC 29212): 19; Selectivity ratio (SR) ([3]; K. pneumoniae ATCC 33495): 39
